Experimental findings from patent US20100197591A1, “4-AMINO-7,8-DIHYDROPYRIDO[4,3-d]PYRIMIDIN-5(6H)-ONE DERIVATIVES” (pfizer Inc, priority 2009, published 2010) are described below.

A word on the IC50: it is the concentration needed to halve the response being measured.

The target in the test is T1, Human full-length diacylglycerol:acylCoA acyltransferase 1 (DGAT-1) (Homo sapiens, UniProt O75907).
T1 construct: Human full-length diacylglycerol:acylCoA acyltransferase 1 (DGAT-1) was expressed in Sf9 insect cells; made in house; host or cells: Sf9 insect cells (baculovirus); crude membrane/microsome fraction
T1 sequence (O75907 1-488): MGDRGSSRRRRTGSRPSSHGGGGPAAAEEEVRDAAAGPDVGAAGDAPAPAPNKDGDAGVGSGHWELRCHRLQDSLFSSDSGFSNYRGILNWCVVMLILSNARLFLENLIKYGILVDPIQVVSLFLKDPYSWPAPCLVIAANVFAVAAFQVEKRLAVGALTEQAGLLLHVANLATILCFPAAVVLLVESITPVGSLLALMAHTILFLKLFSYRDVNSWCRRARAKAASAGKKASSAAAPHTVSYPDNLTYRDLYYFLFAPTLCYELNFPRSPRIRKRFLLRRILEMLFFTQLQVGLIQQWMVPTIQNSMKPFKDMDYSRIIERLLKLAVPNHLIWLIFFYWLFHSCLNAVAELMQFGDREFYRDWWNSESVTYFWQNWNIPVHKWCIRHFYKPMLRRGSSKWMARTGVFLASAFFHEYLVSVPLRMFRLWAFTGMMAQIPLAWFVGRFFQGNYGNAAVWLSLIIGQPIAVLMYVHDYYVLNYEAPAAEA
The test can be described thus: DGAT-1 Reduced Microsome Multidose Assay, G7329F Human IC50. As to conditions: crude membrane fraction of Sf9 cells expressing human DGAT-1; [14C]decanoylCoA; apparent IC50, average where tested more than once. It is filed as biochemical. The protocol: Human full-length diacylglycerol:acylCoA acyltransferase 1 (DGAT-1) was expressed in Sf9 insect cells which are then lysed and a crude membrane fraction (105,000×g pellet) was prepared. The DGAT-1 gene is a human DGAT-1 gene described in J Biol Chem 273:26765 (1998) and U.S. Pat. No. 6,100,077.
In vitro inhibition of DGAT-1 was measured using a modification, further described below, of the assay methodology described in U.S. Pat. No. 6,994,956 B2.
The cells were cultured as follows. Sf9 cells (20 L) were infected with 4 mL of DGAT-1 Baculovirus Infected Insect Cells (BIIC) for 72 hours in a Wave Bioreactor System 20/50P (Wave Biotec/GE Healthcare).
Crude DGAT-1 microsomes were prepared as follows. Cell pellets were washed once with ice-cold Dulbecco's phosphate-buffered saline. Cells were collected in tabletop centrifuge (Beckman GS-6KR), 15 minutes, 2000×g, 4° C. Twenty (20) mL of ice-cold Microsome Buffer (MB) was added per 5 g of cell pellet. The suspension was passed through a microfluidizer 3 times (18K psi). The lysate was transferred to centrifuge tubes and centrifuged for 20 minutes at 5000×g (Beckman-Coulter, Inc. Allegra® 64R High-Speed Refrigerated Benchtop Centrifuge, F0650 rotor) at 4° C. The supernatant was transferred to ultracentrifuge tubes and centrifuged at 125,000×g for 1 hour in a Beckman Ti-45 rotor, 4° C. The supernatant fluid was discarded. The pellet was resuspended in 70 mL of MB by sonication. The microsome concentration was determined using Bio-Rad Protein DC Protein Assay. The microsomes were filter sterilized with a 0.22 μm filter. The samples were portioned, flash frozen and stored at −80° C.
The Microsome Buffer, used for microsome preparation, was prepared by conventional means and contained 125 mM sucrose, 3 mM imidazole, 0.2 μg/mL aprotinin, 0.2 μg/mL leupeptin and 5 mM dithiothreitol (Cleland's reagent), DGAT-1 activity was measured in 384-well format in a total assay volume of 25 μl that contained, Hepes buffer (50 mM, pH 7.5), MgCl2 (10 mM), bovine serum albumin (0.6 mg/ml), [^14C]decanoylCoA (20 μM, 58 Ci/mol) and membranes (25 μg/ml) into which 1,2 dioleoyl-sn-glycerol (75 μM) in acetone has already been incorporated. Inhibitors in DMSO were pre-incubated with membranes before initiating the DGAT-1 reaction by the addition of decanoylCoA. […] The DMSO concentration was 2.5%. The inhibitors were present at a range of eight concentrations to generate an apparent IC50 for each compound. The eight inhibitor concentration employed ranged from 10 μM to 3 nM (from high to low concentration). Specifically, the eight concentrations used were 10 μM, 3 μM, 1 μM, 300 nM, 100 nM, 30 nM, 10 nM and 3 nM.
Reaction mixtures were neutralized by the addition of 15 μl of tris(hydroxy-methyl)aminomethane (1M, pH 8.0) and then mixed by trituration with 37.5 μl of Microscint™-E (Perkin Elmer). Plates contents were allowed to partition for 15 to 30 min before ^14C was measured in a scintillation spectrometer (Wallac Microbeta Trilux 1450-030 liquid scintillation counter 12 detector in the top-count DPM mode). Percent inhibition of test compounds was computed as […].
Four separate assays were performed using 4 different methods of analysis. The method of analysis of Assay 1 was the same as Assay 4 (described above) except microsomes were utilized at 25 μg/mL instead of 5 μg/mL. The method of analysis of Assay 2 was the same as Assay 4 (described above) except eleven (11) concentrations of inhibitor were employed instead of eight (8). The method of analysis of Assay 3 was the same as Assay 2 except the compounds were serially diluted in a different laboratory.
Where this DGAT-1 inhibition assay was performed on a compound more than once, an average is provided for that compound.
`COc1nc(N)c2c(n1)CCN(c1ccc(C(C)(C)c3nc(C)no3)cc1)C2=O` [Example 3F, 4-amino-2-methoxy-6-{4-[1-methyl-1-(3-methyl-1,2,4-oxadiazol-5-yl)ethyl]phenyl}-7,8-dihydropyrido[4,3-d]pyrimidin-5(6H)-one]: the IC50 amounted to 51.5 nM.

As for `CNC(=O)C(C)(C)c1ccc(N2CCc3nc(OC)nc(N)c3C2=O)cc1` [Example 3G, 2-[4-(4-amino-2-methoxy-5-oxo-7,8-dihydropyrido[4,3-d]pyrimidin-6(5H)-yl)phenyl]-N,2-dimethylpropanamide], the IC50 turned out to be 126 nM.

In the case of `COc1nc(N)c2c(n1)CCN(c1ccc(C(C)(C)C(=O)N(C)C)cc1)C2=O` [Example 3H, 2-[4-(4-amino-2-methoxy-5-oxo-7,8-dihydropyrido[4,3-d]pyrimidin-6(5H)-yl)phenyl]-N,N,2-trimethylpropanamide], the IC50 was 260 nM.

Turning to `COc1nc(N)c2c(n1)CCN(c1ccc(C(C)(C)C(N)=O)cc1)C2=O` [Example 3I, 2-[4-(4-amino-2-methoxy-5-oxo-7,8-dihydropyrido[4,3-d]pyrimidin-6(5H)-yl)phenyl]-2-methylpropanamide], the IC50 worked out at 52.8 nM.

Turning to `COc1nc(N)c2c(n1)CCN(c1ccc(C(C)(C)c3ncnn3C)cc1)C2=O` [Example 3K, 4-amino-2-methoxy-6-{4-[1-methyl-1-(1-methyl-1H-1,2,4-triazol-5-yl)ethyl]phenyl}-7,8-dihydropyrido[4,3-d]pyrimidin-5(6H)-one], the IC50 came out at 795 nM.

`COc1nc(N)c2c(n1)CCN(c1ccc(C(C)(C)c3ncn[nH]3)cc1)C2=O` [Example 3N]: the IC50 is 78.5 nM.

Turning to `COc1nc(N)c2c(n1)CCN(c1ccc(C(C)(C)C#N)cc1)C2=O` [Example 3O, 2-[4-(4-amino-2-methoxy-5-oxo-7,8-dihydropyrido[4,3-d]pyrimidin-6(5H)-yl)phenyl]-2-methylpropanenitrile], the IC50 was determined as 88.3 nM.

In the case of `COc1nc(N)c2c(n1)CCN(c1ccc(C(C)(C)c3nnn[nH]3)cc1)C2=O` [Example 3P, 4-amino-2-methoxy-6-{4-[1-methyl-1-(1H-tetrazol-5-yl)ethyl]phenyl}-7,8-dihydropyrido[4,3-d]pyrimidin-5(6H)-one], the IC50 was found to be 20.9 nM.

As to `COc1nc(N)c2c(n1)CCN(c1ccc(C(C)(C)CNC(C)=O)cc1)C2=O` [Example 3U, N-{2-[4-(4-amino-2-methoxy-5-oxo-7,8-dihydropyrido[4,3-d]pyrimidin-6(5H)-yl)phenyl]-2-methylpropyl}acetamide], the IC50 worked out at 84.3 nM.

Regarding `COc1nc(N)c2c(n1)CCN(c1cccc(C(C)C)c1)C2=O` [Example 6B, 4-amino-6-(3-isopropylphenyl)-2-methoxy-7,8-dihydropyrido[4,3-d]pyrimidin-5(6H)-one], the IC50 was 873 nM.

As for `COc1nc(N)c2c(n1)CCN(c1cccc(C(C)(C)C)c1)C2=O` [Example 6C, 4-amino-6-(3-tert-butylphenyl)-2-methoxy-7,8-dihydropyrido[4,3-d]pyrimidin-5(6H)-one], the IC50 was determined as 37.7 nM.

Take `CCOc1nc(N)c2c(n1)CCN(c1ccc(C(C)(C)C)cc1)C2=O` [Example 6D, 4-amino-6-(4-tert-butylphenyl)-2-ethoxy-7,8-dihydropyrido[4,3-d]pyrimidin-5(6H)-one]: the IC50 came to 899 nM.

Turning to `COc1nc(N)c2c(n1)CCN(c1ccc(C(F)(F)F)cc1)C2=O` [Example 6F, 4-amino-2-methoxy-6-[4-(trifluoromethyl)phenyl]-7,8-dihydropyrido[4,3-d]pyrimidin-5(6H)-one], the IC50 stood at 329 nM.

`COc1nc(N)c2c(n1)CCN(c1ccc(C(C)C)cc1F)C2=O` [Example 6G, 4-amino-6-(2-fluoro-4-isopropylphenyl)-2-methoxy-7,8-dihydropyrido[4,3-d]pyrimidin-5(6H)-one]: the IC50 was determined as 19.8 nM.

Take `COc1nc(N)c2c(n1)CCN(c1ccc(C(C)(C)C)c(F)c1)C2=O` [Example 6H, 4-amino-6-(4-tert-butyl-3-fluorophenyl)-2-methoxy-7,8-dihydropyrido[4,3-d]pyrimidin-5(6H)-one]: the IC50 was determined as 12.6 nM.
